Source: patent US4865991A, “Methods for partitioning of organic flavor compounds” (priority 1987, dated 1989)
Like-named read-outs stand apart in the source and are kept apart here.

Columns and labels:
[1] = HPLC determination of partition coefficients in acetonitrile phase systems
Description: In these tests, known organic flavor volatile compounds were added to 2 ml aliquots of 50:50 acetonitrile:water, 22° C., in 4 ml HPLC vials, mixed thoroughly and capped with polytetrafluoroethylene septum caps. […] The samples were injected (20 uL) into a continuous HPLC apparatus. […] The HPLC apparatus was a Waters WISP model 710B sample injector, 6000A pump, and 481 UV detector set at 210 nm (Waters Associates, Milford, MA). A Radiomatic Flo-One Beta unit was used for peak integration (Radiomatic Instruments, Inc., Tampa FL). An Alltech adsorbosphere C18 column, 5 micron, 250 mm×4.6 mm was used (Alltech Associates, Deerfield, IL) to achieve component separation in accordance with conventional HPLC processing. The mobile phase had the following composition: 45% acetonitrile, 55% water, 0.2% KH2 PO4, pH 3.0. The flow rate was 1.0 ml/minute. The vials were then placed in a freezer (-20° C.) for one hour. 250 uL of the resulting organic and aqueous phases were then placed in a limited volume insert vial, the sample injected and peak integrations acquired. The partition coefficient, P, was calculated by dividing the organic phase by the aqueous phase integration values.
To determine the time period appropriate for complete partitioning, four sulfur volatiles and 1-methionine were treated as above, except that samples were taken at different times up to 60 minutes FIGS. 2a, 2b and 3).

[2] = Binary acetonitrile/water cold phase extraction of caffeine from cola beverage; assay type: physicochemical; conditions: cola plus acetonitrile, -20° C. for 1 hour
Description: […]. The sample was shaken for 20 seconds and was chilled to -20° C. for 1 hour. 0.3 ml of the organic layer was then placed in an HPLC sampling vial. The HPLC system used was: a phenyl reversed phase column (Alltech Associates, Deerfield, Ill.) 250×4.6 mm, 5 micron. 25% acetonitrile, 75% water 0.2% w/v KH2 PO4, pH 3.0 mobile phase, 1.5 ml/min. flow rate 20 uL injection by the autosampler. UV detection at 210 nm.

[3] = Acetonitrile/water 1:1, 1 hr. at -20° C., organic phase divided by aqueous phase integration values
[4] = Acetonitrile/water/chloroform 5:5:1, 22° C., organic phase divided by aqueous phase integration values

Row | Structure (SMILES) | Partition Coefficient Ternary [1] | Partition Coefficient Binary ([1]; 60 min) | Partition Coefficient Binary [1, 3] | Partition Coefficient Ternary [1, 4] | extraction into the organic phase [2]
1 | OCCc1ccccc1 [2-phenyl ethanol] | 2.3 | 3.3 | – | – | –
2 | CCCC(=O)OCC [Ethyl Butyrate] | 17.6 | 14.3 | – | – | –
3 | N[C@@H](Cc1ccccc1)C(=O)O [1-phenylalanine] | – | – | 0.1 | 0.3 | –
4 | CCCCCCCC(=O)O [Caprylic acid] | – | – | 20.8 | 20.6 | –
5 | CSC [Dimethyl sulfide] | 6.6 | 5.2 | – | – | –
6 | O=C1O[C@H]([C@@H](O)CO)[C@@H](O)[C@@H]1O [1-galactono-1,4-lactone] | 0.2 | 0.2 | – | – | –
7 | S [Hydrogen sulfide] | – | – | 4.6 | 5.2 | –
8 | Cn1c(=O)c2c(ncn2C)n(C)c1=O [Caffeine] | – | – | – | – | selectively extracted into the organic phase
9 | CSCC[C@H](N)C(=O)O [1-methionine] | – | – | 0.03 | 0.2 | –
10 | CCCCC(=O)OCC [Ethyl Valerate] | – | – | 25.9 | 25.6 | –
